Calls of active or inactive are those of the source. No cut-off for these calls is given here.
System: Hemicentrotus pulcherrimus
Experiment: Ability of the embryo (sea urchin, Hemicentrotus pulcherrimus) to form spicule deficient plutei when treated with the compound at a concentration of 0.4-12 uM; not active
Format: functional, organism-based

CC1=C[C@@]2(CC1)[C@H](NC=O)[C@H](C(C)C)CC[C@@H]2C
Activity: inactive

Reference: ChEMBL document CHEMBL1134925, “Exiguamide, a new spirocyclic sesquiterpene from the marine sponge Geodia exigua that inhibits cell fate specification during sea urchin embryogenesis” (Bioorg Med Chem Lett, 2002)
